In ChEMBL document CHEMBL5543162, “Discovery of a Novel Orally Bioavailable FLT3-PROTAC Degrader for Efficient Treatment of Acute Myeloid Leukemia and Overcoming Resistance of FLT3 Inhibitors” (J Med Chem, 2024):
The source made the active and inactive calls. The calls are words filed in the database; no cut-off is given here.

What was measured:
MV4-11 [1] = experiment: Antiproliferative activity against human MV4-11 cells expressing FLT3-ITD mutant incubated for 48 hrs by CCK8 assay; format: functional, cell-based; settings: MV4-11, 48 h
[2] = system: Protein cereblon/Receptor-type tyrosine-protein kinase FLT3 (Homo sapiens), P36888+Q96SW2 [UNDEFINED MUTATION]; experiment: PROTAC activity at CRBN/FLT3-ITD mutant in membrane of human MV4-11 cells assessed as protein degradation at 100 nM measured after 24 hrs by immunofluorescence analysis
[3] = system: Protein cereblon/Receptor-type tyrosine-protein kinase FLT3 (Homo sapiens), P36888+Q96SW2 [UNDEFINED MUTATION]; experiment: PROTAC activity at CRBN/FLT3-ITD mutant in human MV4-11 cells assessed as protein degradation incubated for 12 hrs by Western blot analysis; format: cell-based; settings: dose <= 20.0 nM
[4] = system: Protein cereblon/Receptor-type tyrosine-protein kinase FLT3 (Homo sapiens), P36888+Q96SW2 [UNDEFINED MUTATION]; experiment: PROTAC activity at CRBN/FLT3-ITD mutant in human MV4-11 cells assessed as decrease in STAT5 level at 20 nM by Western blot analysis; format: cell-based; settings: time <= 12.0 hrs, TDE = time-dependent effect
[5] = system: Protein cereblon/Receptor-type tyrosine-protein kinase FLT3 (Homo sapiens), P36888+Q96SW2 [UNDEFINED MUTATION]; experiment: PROTAC activity at CRBN/FLT3-ITD mutant in human MV4-11 cells assessed as decrease in S6K level at 20 nM by Western blot analysis; format: cell-based; settings: time <= 12.0 hrs, TDE = time-dependent effect
[6] = system: Protein cereblon/Receptor-type tyrosine-protein kinase FLT3 (Homo sapiens), P36888+Q96SW2 [UNDEFINED MUTATION]; experiment: PROTAC activity at CRBN/FLT3-ITD mutant in human MOLM-13 cells assessed as protein degradation incubated for 12 hrs by Western blot analysis; format: cell-based; settings: dose <= 20.0 nM
[7] = system: Protein cereblon/Receptor-type tyrosine-protein kinase FLT3 (Homo sapiens), P36888+Q96SW2 [UNDEFINED MUTATION]; experiment: PROTAC activity at CRBN/FLT3-ITD mutant in human MOLM-13 cells assessed as decrease in ERK level incubated for 12 hrs by Western blot analysis; format: cell-based; settings: dose <= 20.0 nM
[8] = system: Protein cereblon/Receptor-type tyrosine-protein kinase FLT3 (Homo sapiens), P36888+Q96SW2 [UNDEFINED MUTATION]; experiment: PROTAC activity at CRBN/FLT3-ITD mutant in human MOLM-13 cells assessed as decrease in ERK level at 20 nM by Western blot analysis; format: cell-based; settings: time <= 12.0 hrs, TDE = time-dependent effect
[9] = system: Protein cereblon/Receptor-type tyrosine-protein kinase FLT3 (Homo sapiens), P36888+Q96SW2 [UNDEFINED MUTATION]; experiment: PROTAC activity at CRBN/FLT3-ITD mutant in human MV4-11 cells assessed as protein degradation at 100 nM incubated for 8 hrs in presence of bortezomib by Western blot analysis; format: cell-based
[10] = Antiproliferative activity against human HL-60 cells expressing wild-type FLT3 incubated for 48 hrs by CCK8 assay; format: toxicity, cell-based
[11] = Antiproliferative activity against human PBMC cells at 30 to 1000 nM incubated for 48 hrs by CCK8 assay; format: toxicity, cell-based; settings: 1 µM, dose 30-1000 nM
MV4-11 [12] = experiment: Induction of cell cycle arrest at G1 phase in human MV4-11 cells at 1 nM incubated for 24 hrs by PI/RNase staining based flow cytometry relative to control; format: functional
[13] = Clearance in Sprague-Dawley rat at 10 mg/kg, po measured for 24 hrs by LC-MS/MS analysis; format: ADME, organism-based; settings: in vivo
[14] = Toxicity in nu/nu mouse xenografted with human MV4-11 cells assessed as change in body weight at 1.25 to 10 mg/kg, po administered daily for 2 weeks; format: organism-based; settings: in vivo, 336 h, dose 1.25-10 mg/kg
MV4-11 [15] = experiment: In vivo PROTAC activity at CRBN/FLT3-ITD mutant in human MV4-11 cells xenografted in nu/nu mouse assessed as protein degradation at 1.25 mg/kg, po administered daily for 2 weeks by immunoblot analysis; format: functional, organism-based
MV4-11 [16] = experiment: Induction of proapoptosis in human MV4-11 cells xenografted in nu/nu mouse assessed as increase in cleaved caspase-3 level at 1.25 to 10 mg/kg, po administered daily for 2 weeks; format: functional, organism-based; settings: dose 1.25-10 mg/kg
[17] = Toxicity in nu/nu mouse xenografted with human MV4-11 cells assessed as damage in heart at 1.25 to 10 mg/kg, po administered daily for 2 weeks by H and E staining based analysis; format: organism-based; settings: in vivo, 336 h, dose 1.25-10 mg/kg
MV4-11 [18] = experiment: Antitumor activity against human MV4-11 cells expressing luciferase xenografted in NSG mouse assessed as increase in animal survival at 2.5 mg/kg, po administered daily for 3 weeks and measured for 58 days; format: functional, organism-based; settings: time 58.0 day
MV4-11 [19] = experiment: Antitumor activity against human MV4-11 cells expressing luciferase xenografted in NSG mouse assessed as increase in animal survival at 5 mg/kg, po administered daily for 3 weeks and measured for 66 days; format: functional, organism-based; settings: time 66.0 day
Mus musculus [20] = experiment: Anti-leukemic activity in NSG mouse xenografted with human MV4-11 cells expressing luciferase assessed as decrease in CD45+/CD33+ cells proportion in bone marrow at 1.25 to 10 mg/kg, po administered daily for 3 weeks; format: functional, organism-based; settings: dose 1.25-10 mg/kg
Mus musculus [21] = experiment: Anti-leukemic activity in NSG mouse xenografted with human MV4-11 cells expressing luciferase assessed as decrease in CD45+/CD33+ cells proportion in spleen at 1.25 to 10 mg/kg, po administered daily for 3 weeks; format: functional, organism-based; settings: dose 1.25-10 mg/kg
[22] = Toxicity in nude mouse xenografted with human MV4-11 cells assessed as change in body weight at 120 mg/kg, po administered daily for 15 days; format: organism-based; settings: in vivo, 360 h, time 15 day
BaF3 [23] = experiment: Antiproliferative activity against mouse Ba/F3 cells expressing FLT3-ITD D835V mutant incubated for 48 hrs by CCK8 assay; format: functional, cell-based; settings: BaF3, 48 h
BaF3 [24] = experiment: Antiproliferative activity against mouse Ba/F3 cells expressing FLT3-ITD Y842H mutant incubated for 48 hrs by CCK8 assay; format: functional, cell-based; settings: BaF3, 48 h
[25] = Stability in human liver microsomes assessed as half life; format: ADME, Microsome
[26] = Stability in dog liver microsomes assessed as half life; format: ADME, Canis lupus familiaris, Microsome
[27] = Stability in monkey liver microsomes assessed as half life; format: ADME, Microsome; settings: chlorocebus aethiops
[28] = Stability in mouse liver microsomes assessed as half life; format: ADME, Microsome
[29] = Stability in human liver microsomes assessed as intrinsic clearance; format: ADME, Microsome; settings: read-out: CLH
[30] = Stability in monkey liver microsomes assessed as intrinsic clearance; format: ADME, Microsome; settings: chlorocebus aethiops, read-out: CLH
[31] = Stability in mouse liver microsomes assessed as intrinsic clearance; format: ADME, Microsome; settings: read-out: CLH
CYP3A4/CYP3A5 = CYP3A4/CYP3A5 (Homo sapiens, UniProt P08684+P20815); experiment: Inhibition of CYP3A4/CYP3A5 (unknown origin) using midazolam as substrate; format: ADME, protein assay; settings: probe midazolam
Cytochrome P450 2B6 = molecular target: T1, Cytochrome P450 2B6 (Homo sapiens, UniProt P20813); experiment: Inhibition of CYP2B6 (unknown origin); format: ADME
T1 sequence (P20813 whole entry): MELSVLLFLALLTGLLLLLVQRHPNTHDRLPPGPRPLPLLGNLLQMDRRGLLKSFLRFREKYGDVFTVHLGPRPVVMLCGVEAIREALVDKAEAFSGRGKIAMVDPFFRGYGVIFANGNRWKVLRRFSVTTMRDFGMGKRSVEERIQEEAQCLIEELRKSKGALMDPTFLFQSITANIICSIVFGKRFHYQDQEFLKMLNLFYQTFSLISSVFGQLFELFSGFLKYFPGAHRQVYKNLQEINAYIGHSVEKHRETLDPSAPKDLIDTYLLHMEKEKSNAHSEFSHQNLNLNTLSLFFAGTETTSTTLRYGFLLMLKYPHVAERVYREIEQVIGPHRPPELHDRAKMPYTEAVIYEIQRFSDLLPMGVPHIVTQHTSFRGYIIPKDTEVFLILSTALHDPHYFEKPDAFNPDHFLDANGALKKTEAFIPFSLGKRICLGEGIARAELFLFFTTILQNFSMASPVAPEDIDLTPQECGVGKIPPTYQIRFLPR

Chain of Protein cereblon/Receptor-type tyrosine-protein kinase FLT3 (Homo sapiens), P36888+Q96SW2 [UNDEFINED MUTATION] (P36888 whole entry, looked up, stated change not applied): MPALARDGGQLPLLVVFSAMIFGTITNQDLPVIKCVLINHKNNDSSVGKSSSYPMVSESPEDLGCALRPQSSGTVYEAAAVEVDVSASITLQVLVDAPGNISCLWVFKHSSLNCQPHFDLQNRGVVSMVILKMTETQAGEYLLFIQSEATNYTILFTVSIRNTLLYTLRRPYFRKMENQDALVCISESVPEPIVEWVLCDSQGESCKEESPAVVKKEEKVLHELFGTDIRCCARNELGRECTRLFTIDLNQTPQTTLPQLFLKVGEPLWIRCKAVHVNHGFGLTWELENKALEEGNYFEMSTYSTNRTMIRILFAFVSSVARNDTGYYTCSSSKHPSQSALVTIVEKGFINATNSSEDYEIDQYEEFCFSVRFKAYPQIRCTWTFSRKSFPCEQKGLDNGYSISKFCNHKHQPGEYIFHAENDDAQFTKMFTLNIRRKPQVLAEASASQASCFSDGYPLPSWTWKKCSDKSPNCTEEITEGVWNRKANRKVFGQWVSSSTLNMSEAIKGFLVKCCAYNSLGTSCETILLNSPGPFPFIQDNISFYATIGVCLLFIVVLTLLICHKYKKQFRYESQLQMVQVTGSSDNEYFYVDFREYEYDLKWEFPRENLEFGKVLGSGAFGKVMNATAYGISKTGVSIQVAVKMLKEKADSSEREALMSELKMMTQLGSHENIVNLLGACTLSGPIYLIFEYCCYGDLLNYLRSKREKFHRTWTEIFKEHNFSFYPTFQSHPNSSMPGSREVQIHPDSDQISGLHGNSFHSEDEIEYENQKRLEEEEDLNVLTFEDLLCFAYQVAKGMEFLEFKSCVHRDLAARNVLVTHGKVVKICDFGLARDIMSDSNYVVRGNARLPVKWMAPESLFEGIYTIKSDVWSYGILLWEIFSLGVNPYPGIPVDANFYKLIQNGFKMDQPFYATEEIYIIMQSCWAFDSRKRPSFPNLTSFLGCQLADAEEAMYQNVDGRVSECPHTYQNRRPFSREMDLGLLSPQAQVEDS
Chain of Protein cereblon/Receptor-type tyrosine-protein kinase FLT3 (Homo sapiens), P36888+Q96SW2 [UNDEFINED MUTATION] (Q96SW2 whole entry, looked up, stated change not applied): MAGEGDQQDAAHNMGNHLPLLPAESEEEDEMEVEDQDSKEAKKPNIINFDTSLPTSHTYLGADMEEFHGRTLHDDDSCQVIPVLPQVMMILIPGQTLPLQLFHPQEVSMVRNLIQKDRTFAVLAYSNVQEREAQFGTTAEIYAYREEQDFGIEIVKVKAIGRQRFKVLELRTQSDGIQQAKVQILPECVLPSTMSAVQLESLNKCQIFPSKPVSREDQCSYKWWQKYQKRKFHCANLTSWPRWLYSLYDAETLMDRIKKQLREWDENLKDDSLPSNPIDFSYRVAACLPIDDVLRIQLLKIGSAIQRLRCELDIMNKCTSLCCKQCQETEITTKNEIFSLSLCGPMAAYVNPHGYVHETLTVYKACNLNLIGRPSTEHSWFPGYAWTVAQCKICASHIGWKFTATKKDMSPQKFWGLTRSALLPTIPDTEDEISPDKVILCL

Cc1c(NC(=O)CN2CCN(CC3CCN(c4ccc5c(c4)C(=O)N(C4CCC(=O)NC4=O)C5=O)CC3)CC2)c[nH]c1/C=C1\C(=O)Nc2ccc(F)cc21 (stereo not drawn)
IC50 (MV4-11 [1]): 0.0399 µM | Activity [2]: Active | Activity [3]: Dose-Dependent Effect | Activity [4]: Tde | Activity [5]: Tde | Activity [6]: Dose-Dependent Effect | Activity [7]: Dose-Dependent Effect | Activity [8]: Tde | Activity [9]: inactive | IC50 at 48 h [10]: > 40 µM | Activity [11]: Non-Toxic | Activity (MV4-11 [12]): 82% | CL/F [13]: 0.672 L/h/kg | Activity [14]: Non-Toxic | Activity (MV4-11 [15]): Active | Activity (MV4-11 [16]): Active | Activity [17]: Non-Toxic | Activity (MV4-11 [18]): Active | Activity (MV4-11 [19]): Active | Activity (Mus musculus [20]): Active | Activity (Mus musculus [21]): Active | Activity [22]: Non-Toxic | IC50 (BaF3 [23]): 0.0451 µM | IC50 (BaF3 [24]): 0.0467 µM | half-life [25]: 1.16 h | half-life [26]: 1.88 h | half-life [27]: 0.615 h | half-life [28]: 0.982 h | CLint scaled [29]: 1.39 L/h/kg | CLint scaled [30]: 3.04 L/h/kg | CLint scaled [31]: 5.56 L/h/kg | IC50 (CYP3A4/CYP3A5): > 50 µM | IC50 (Cytochrome P450 2B6): > 50 µM
